According to ChEMBL document CHEMBL3232938, “Design, synthesis, and biological evaluation of dihydroartemisinin-fluoroquinolone conjugates as a novel type of potential antitubercular agents” (2014):
≈ marks a conversion by molar mass, not a printed value.

Experiments:
Assay type in all cases: functional
[1] = system: Mycobacterium tuberculosis; assay: Antibacterial activity against multidrug-resistant 1 ug/ml Mycobacterium tuberculosis clinical isolate 1256 assessed as growth inhibition after 7 days by microtiter plate assay; details: isolate 1256, 168 h
[2] = system: Mycobacterium tuberculosis; assay: Antibacterial activity against multidrug-resistant 1 ug/ml Mycobacterium tuberculosis clinical isolate 1288 assessed as growth inhibition after 7 days by microtiter plate assay; details: isolate 1288, 168 h
[3] = system: Mycobacterium tuberculosis; assay: Antibacterial activity against multidrug-resistant 1 ug/ml Mycobacterium tuberculosis clinical isolate 1259 assessed as growth inhibition after 7 days by microtiter plate assay; details: isolate 1259, 168 h
[4] = system: Mycobacterium tuberculosis; assay: Antibacterial activity against multidrug-resistant 1 ug/ml Mycobacterium tuberculosis clinical isolate 1237 assessed as growth inhibition after 7 days by microtiter plate assay; details: isolate 1237, 168 h
[5] = system: Mycobacterium tuberculosis; assay: Antibacterial activity against multidrug-resistant 1 ug/ml Mycobacterium tuberculosis clinical isolate 930 assessed as growth inhibition after 7 days by microtiter plate assay; details: isolate 930, 168 h

In the case of `C[C@H]1[C@@H](OCCCNC2CCN(c3c(F)cc4c(=O)c(C(=O)O)cn(C5CC5)c4c3Cl)C2)O[C@@H]2O[C@@]3(C)CC[C@H]4[C@H](C)CC[C@@H]1[C@@]24OO3` (stereo not given in full), the MIC [1] was 16 µg/mL (≈ 23.2 µM), the MIC [2] was 0.125 µg/mL (≈ 0.181 µM) and the MIC [3] was 2 µg/mL (≈ 2.9 µM). For the same compound, the MIC [4] was 2 µg/mL (≈ 2.9 µM) and the MIC [5] was 4 µg/mL (≈ 5.8 µM).

`NC1CCN(c2c(F)cc3c(=O)c(C(=O)O)cn(C4CC4)c3c2Cl)C1` (stereo not given) [CLINAFLOXACIN] gave an MIC [1] of 0.5 µg/mL (≈ 1.37 µM), an MIC [2] of 1 µg/mL (≈ 2.73 µM) and an MIC [3] of 0.125 µg/mL (≈ 0.342 µM). For the same compound, the MIC [4] was 1 µg/mL (≈ 2.73 µM) and the MIC [5] was 4 µg/mL (≈ 10.9 µM).

Compound `C[C@H]1[C@@H](OCCNC2CCN(c3c(F)cc4c(=O)c(C(=O)O)cn(C5CC5)c4c3Cl)C2)O[C@@H]2O[C@@]3(C)CC[C@H]4[C@H](C)CC[C@@H]1[C@@]24OO3` (stereo not given in full) has an MIC [1] of 16 µg/mL (≈ 23.7 µM), an MIC [2] of 0.125 µg/mL (≈ 0.185 µM) and an MIC [3] of 2 µg/mL (≈ 2.96 µM). It also gave an MIC [4] of 2 µg/mL (≈ 2.96 µM) and an MIC [5] of 4 µg/mL (≈ 5.92 µM).

`CCn1cc(C(=O)O)c(=O)c2cc(F)c(N3CCNCC3)cc21` [NORFLOXACIN] was tested, and the MIC [1] was 16 µg/mL (≈ 50.1 µM), the MIC [2] was > 16 µg/mL and the MIC [3] was 2 µg/mL (≈ 6.26 µM). For the same compound, the MIC [4] was > 16 µg/mL and the MIC [5] was > 16 µg/mL.

With `O=C(O)c1cn(-c2ccc(F)cc2)c2cc(N3CCNCC3)c(F)cc2c1=O` [SARAFLOXACIN] the MIC [1] was 16 µg/mL (≈ 41.5 µM), the MIC [2] was > 16 µg/mL and the MIC [3] was 4 µg/mL (≈ 10.4 µM). For the same compound, the MIC [4] was > 16 µg/mL and the MIC [5] was > 16 µg/mL.

With `C[C@H]1[C@@H](O)O[C@@H]2O[C@@]3(C)CC[C@H]4[C@H](C)CC[C@@H]1[C@@]24OO3` [ARTENIMOL] the MIC [1] was > 16 µg/mL, the MIC [2] was > 16 µg/mL and the MIC [3] was > 16 µg/mL. The MIC [4] was > 16 µg/mL and the MIC [5] was > 16 µg/mL.
